Laboratory results: ChEMBL document CHEMBL1150736, “Potential inhibitors of platelet aggregation from plant sources, III” (1987)
Active and inactive are the calls of the source. The calls are words filed in the database; no cut-off is given here.

Key:
Format in all cases: functional
Platelet [1] = experiment: Antiplatelet activity against rat platelet rich plasma assessed as inhibition of arachidonic acid-induced platelet aggregation at 0.5 mg/ml pretreated 2 mins before arachidonic acid challenge
Platelet [2] = experiment: Antiplatelet activity against rat platelet rich plasma assessed as inhibition of collagen-induced platelet aggregation at 0.25 mg/ml pretreated 2 mins before collagen challenge
Platelet [3] = experiment: Antiplatelet activity against rat platelet rich plasma assessed as inhibition of ADP-induced platelet aggregation at 1 mg/ml pretreated 2 mins before ADP challenge
Platelet [4] = experiment: Antiplatelet activity against rat platelet rich plasma assessed as inhibition of arachidonic acid-induced platelet aggregation at 0.25 mg/ml pretreated 2 mins before arachidonic acid challenge
Platelet [5] = experiment: Antiplatelet activity against rat platelet rich plasma assessed as inhibition of collagen-induced platelet aggregation at 0.1 mg/ml pretreated 2 mins before collagen challenge
Platelet [6] = experiment: Antiplatelet activity against rat platelet rich plasma assessed as inhibition of arachidonic acid-induced platelet aggregation at 0.1 mg/ml pretreated 2 mins before arachidonic acid challenge
[7] = Antiplatelet activity against rat platelet rich plasma assessed as inhibition of ADP-induced platelet aggregation pretreated 2 mins before ADP challenge
Platelet [8] = experiment: Antiplatelet activity against rat platelet rich plasma assessed as inhibition of collagen-induced platelet aggregation at 0.05 mg/ml pretreated 2 mins before collagen challenge
[9] = Antiplatelet activity against rat platelet rich plasma assessed as inhibition of collagen-induced platelet aggregation pretreated 2 mins before collagen challenge
[10] = Antiplatelet activity against rat platelet rich plasma assessed as inhibition of arachidonic acid-induced platelet aggregation pretreated 2 mins before arachidonic acid challenge
Platelet [11] = experiment: Antiplatelet activity against rat platelet rich plasma assessed as inhibition of ADP-induced platelet aggregation at 0.5 mg/ml pretreated 2 mins before ADP challenge

Structure (SMILES): COC(=O)c1cc(OC)cc(OC)c1
- Activity (Platelet [1]): Active
- Activity (Platelet [2]): Active

Structure (SMILES): CCOc1ccc(C(=O)O)cc1OCC
- Activity (Platelet [3]): Active
- Activity (Platelet [1]): Active
- Activity (Platelet [2]): inactive
- Activity (Platelet [4]): inactive
- Activity (Platelet [5]): inactive

Structure (SMILES): COC(=O)c1cc(O)cc(O)c1
- Activity (Platelet [3]): Active
- Activity (Platelet [1]): Active
- Activity (Platelet [2]): Active
- Activity (Platelet [4]): Active
- Activity (Platelet [6]): Active

Structure (SMILES): CC(=O)Oc1ccccc1C(=O)O [ASPIRIN]
- Activity [7]: 5.6 mM
- Activity (Platelet [3]): Active
- Activity (Platelet [1]): Active
- Activity (Platelet [2]): Active
- Activity (Platelet [4]): Active
- Activity (Platelet [8]): inactive
- Activity [9]: 1.4 mM
- Activity (Platelet [6]): Active
- Activity [10]: 2.8 ×10⁻⁴ M

Structure (SMILES): COc1ccc(C(=O)O)cc1OC
- Activity (Platelet [4]): inactive
- Activity (Platelet [11]): inactive

Structure (SMILES): O=C(O)c1cc(O)ccc1O
- Activity (Platelet [3]): Active
- Activity (Platelet [1]): Active
- Activity (Platelet [2]): Active

Structure (SMILES): COC(=O)c1ccc(OC)c(OC)c1
- Activity (Platelet [1]): Active
- Activity (Platelet [2]): Active
- Activity (Platelet [4]): Active
- Activity (Platelet [5]): Active

Structure (SMILES): O=C(O)c1ccc(O)c(O)c1 [PROTOCATECHUIC ACID]
- Activity [7]: 6.5 mM
- Activity (Platelet [3]): Active
- Activity (Platelet [1]): Active
- Activity (Platelet [2]): Active
- Activity [9]: 1.6 mM
- Activity [10]: 3.2 mM

Structure (SMILES): O=C(O)c1cc(O)cc(O)c1
- Activity (Platelet [3]): Active
- Activity (Platelet [1]): Active
- Activity (Platelet [2]): Active

Structure (SMILES): COc1cccc(C(=O)O)c1OC
- Activity (Platelet [3]): Active
- Activity (Platelet [1]): inactive
- Activity (Platelet [2]): Active
- Activity (Platelet [4]): inactive

Structure (SMILES): COc1cccc(OC)c1C(=O)O
- Activity (Platelet [2]): Active
- Activity (Platelet [4]): inactive

Structure (SMILES): COc1ccc(C(=O)O)c(O)c1
- Activity (Platelet [1]): Active
- Activity (Platelet [2]): Active

Structure (SMILES): CCOC(=O)c1ccc(O)cc1O
- Activity (Platelet [3]): Active
- Activity (Platelet [1]): Active
- Activity (Platelet [4]): Active

Structure (SMILES): COc1ccc(O)c(C(=O)O)c1
- Activity (Platelet [3]): Active
- Activity (Platelet [2]): Active
- Activity (Platelet [4]): inactive

Structure (SMILES): COc1cccc(C(=O)O)c1O
- Activity (Platelet [3]): Active
- Activity (Platelet [1]): Active

Structure (SMILES): O=C(O)c1ccc(O)cc1O
- Activity (Platelet [3]): Active
- Activity (Platelet [1]): Active
- Activity (Platelet [2]): Active
- Activity (Platelet [4]): Active
- Activity (Platelet [5]): Active
- Activity (Platelet [6]): Active

Structure (SMILES): CCOC(=O)c1ccc(O)c(O)c1
- Activity [7]: 2.7 mM
- Activity (Platelet [3]): Active
- Activity (Platelet [1]): Active
- Activity (Platelet [2]): Active
- Activity (Platelet [4]): Active
- Activity (Platelet [11]): Active
- Activity [9]: 1.4 mM
- Activity (Platelet [6]): Active
- Activity [10]: 5.5 ×10⁻⁴ M

Structure (SMILES): COC(=O)c1cccc(O)c1O
- Activity (Platelet [3]): Active
- Activity (Platelet [1]): Active
- Activity (Platelet [4]): Active

Structure (SMILES): CCOC(=O)c1cc(O)cc(O)c1
- Activity (Platelet [3]): Active
- Activity (Platelet [1]): Active

Structure (SMILES): O=C(O)c1cccc(O)c1O
- Activity (Platelet [3]): Active
- Activity (Platelet [1]): Active
- Activity (Platelet [2]): Active
- Activity (Platelet [4]): Active

Structure (SMILES): COc1cc(CC(=O)O)ccc1O
- Activity (Platelet [3]): Active
- Activity (Platelet [4]): Active

Structure (SMILES): CCOC(=O)c1cccc(O)c1O
- Activity (Platelet [3]): Active
- Activity (Platelet [1]): Active
- Activity (Platelet [4]): Active

Structure (SMILES): COC(=O)c1ccc(O)c(OC)c1
- Activity (Platelet [3]): Active
- Activity (Platelet [1]): Active
- Activity (Platelet [2]): Active
- Activity (Platelet [4]): Active
- Activity (Platelet [5]): Active

Structure (SMILES): COc1ccc(C(=O)O)cc1O
- Activity (Platelet [3]): Active
- Activity (Platelet [1]): Active
- Activity (Platelet [4]): inactive

Structure (SMILES): COC(=O)c1ccc(O)cc1O
- Activity (Platelet [3]): Active
- Activity (Platelet [1]): Active
- Activity (Platelet [4]): Active

Structure (SMILES): O=C(O)c1c(O)cccc1O
- Activity (Platelet [1]): Active
- Activity (Platelet [2]): Active

Structure (SMILES): COc1cc(C(=O)O)ccc1O
- Activity (Platelet [3]): Active
- Activity (Platelet [1]): Active
- Activity (Platelet [2]): Active
- Activity (Platelet [4]): inactive

Structure (SMILES): COC(=O)c1ccc(O)c(O)c1
- Activity (Platelet [3]): Active
- Activity (Platelet [1]): Active
- Activity (Platelet [4]): Active

Structure (SMILES): COc1cc(OC)cc(C(=O)O)c1
- Activity (Platelet [2]): inactive
- Activity (Platelet [5]): inactive
- Activity (Platelet [11]): inactive

Structure (SMILES): COc1ccc(C(=O)O)c(OC)c1
- Activity (Platelet [3]): Active
- Activity (Platelet [1]): Active
- Activity (Platelet [2]): Active

Structure (SMILES): COC(=O)c1ccc(OC)cc1O
- Activity (Platelet [2]): Active
- Activity (Platelet [4]): inactive
- Activity (Platelet [11]): inactive
